Source: ChEMBL document CHEMBL6134780, “Halogenated retinoid derivatives as dual RARα and RXRα modulators for treating acute promyelocytic leukemia cells” (Eur J Med Chem, 2024)
Active and inactive are the calls of the source. The rule behind the calls is not given here.

What was measured:
K562 [1] = test: Induction of apoptosis in human K562 cells assessed as early apoptotic cells at 1 uM incubated for 24 hrs by Annexin V-FITC/PI staining based flow cytometric analysis (reference value: 0.91 %); type: functional
NB-4 [2] = test: Induction of apoptosis in human NB4 cells assessed as early apoptotic cells at 1 uM incubated for 24 hrs by Annexin V-FITC/PI staining based flow cytometric analysis (reference value: 4.37 %); type: functional
[3] = target: T1, Retinoic acid receptor alpha (Homo sapiens, UniProt P10276); test: Binding affinity to N-terminal His-tagged human RARalpha LBD extracted from Escherichia coli BL21 (DE3) cells assessed as dissociation constant by fluorescence quenching assay
T1 sequence (P10276 whole entry): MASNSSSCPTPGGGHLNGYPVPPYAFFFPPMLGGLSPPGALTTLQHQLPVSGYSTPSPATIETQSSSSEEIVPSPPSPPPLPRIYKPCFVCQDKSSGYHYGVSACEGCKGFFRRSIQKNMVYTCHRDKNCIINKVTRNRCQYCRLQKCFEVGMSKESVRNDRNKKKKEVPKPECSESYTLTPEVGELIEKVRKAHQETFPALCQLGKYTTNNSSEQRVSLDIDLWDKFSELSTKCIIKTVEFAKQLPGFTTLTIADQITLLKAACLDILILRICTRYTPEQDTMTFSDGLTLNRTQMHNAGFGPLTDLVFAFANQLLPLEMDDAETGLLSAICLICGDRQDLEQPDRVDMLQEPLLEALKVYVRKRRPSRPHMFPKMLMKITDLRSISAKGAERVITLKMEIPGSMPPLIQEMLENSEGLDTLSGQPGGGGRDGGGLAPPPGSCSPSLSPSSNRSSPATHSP

K562 [4] = test: Effect on cell cycle population in human K562 cells at 0.5 uM by DAPI staining based flow cytometric analysis; type: functional
[5] = target: T2, Retinoic acid receptor RXR-beta (Homo sapiens) (UniProt P28702); test: Competitive binding affinity to Gal4-fused full length RXRbeta LBD (unknown origin) transfected in HEK293T cells co-transfected with pG5luc reporter and Renilla-luc assessed as inhibition of 9-cis-RA induced transactivation at 0.1 to 1 uM incubated for 12 hrs by luciferase reporter gene assay; type: cell-based; details: dose 0.1-1 µM
T2 sequence (whole entry): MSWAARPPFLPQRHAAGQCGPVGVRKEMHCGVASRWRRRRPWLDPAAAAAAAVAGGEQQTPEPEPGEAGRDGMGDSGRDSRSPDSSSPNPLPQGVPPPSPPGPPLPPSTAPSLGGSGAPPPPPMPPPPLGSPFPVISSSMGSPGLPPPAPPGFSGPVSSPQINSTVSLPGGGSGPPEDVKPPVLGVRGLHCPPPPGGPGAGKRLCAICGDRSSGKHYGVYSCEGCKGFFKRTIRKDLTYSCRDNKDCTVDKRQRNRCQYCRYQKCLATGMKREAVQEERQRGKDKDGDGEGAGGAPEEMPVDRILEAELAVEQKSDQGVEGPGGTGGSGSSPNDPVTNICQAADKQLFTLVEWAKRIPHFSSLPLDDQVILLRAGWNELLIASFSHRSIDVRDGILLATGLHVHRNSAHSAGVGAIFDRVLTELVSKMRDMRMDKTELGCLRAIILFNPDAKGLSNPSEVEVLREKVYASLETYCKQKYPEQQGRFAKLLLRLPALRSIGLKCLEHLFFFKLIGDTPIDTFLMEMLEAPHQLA

NB-4 [6] = test: Antiproliferative activity against human NB4 cells assessed as inhibition of cell viability up to 3.5 uM incubated for 3 days by CCK8 assay relative to control; type: functional; details: time 3 day
ATRA-resistant NB4-LR2 [7] = test: Induction of mitosis in human ATRA-resistant NB4-LR2 cells assessed as upregulation of pS10-histone expression at 2 uM measured after 3 hrs by Western blot analysis; type: functional, cell-based
[8] = Induction of apoptosis in human ATRA-resistant NB4-LR2 cells assessed as early apoptotic cells at 1 uM incubated for 24 hrs by Annexin V-FITC/PI staining based flow cytometric analysis (reference value: 5.38 %); type: functional
[9] = target: T3, Retinoic acid receptor gamma (Homo sapiens) (UniProt P13631); test: Agonist activity at Gal4-fused full length human RARgamma LBD transfected in HEK293T cells co-transfected with pG5luc reporter and Renilla-luc assessed as transactivation by measuring maximal efficacy incubated for 12 hrs by dual luciferase reporter gene assay relative to control; type: cell-based
T3 sequence (whole entry): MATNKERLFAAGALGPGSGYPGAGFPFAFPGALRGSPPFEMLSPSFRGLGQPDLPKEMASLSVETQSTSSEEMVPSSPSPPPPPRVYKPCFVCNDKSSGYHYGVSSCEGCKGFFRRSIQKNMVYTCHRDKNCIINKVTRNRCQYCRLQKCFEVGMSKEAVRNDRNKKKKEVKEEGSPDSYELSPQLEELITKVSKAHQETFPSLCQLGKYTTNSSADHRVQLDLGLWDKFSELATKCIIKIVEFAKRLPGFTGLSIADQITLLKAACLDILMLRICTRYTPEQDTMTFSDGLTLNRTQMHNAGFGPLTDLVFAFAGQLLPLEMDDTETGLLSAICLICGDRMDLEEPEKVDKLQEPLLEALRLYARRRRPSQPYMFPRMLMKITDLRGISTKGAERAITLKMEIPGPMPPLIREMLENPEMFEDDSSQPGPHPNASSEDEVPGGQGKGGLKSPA

[10] = target: Estrogen receptor (Homo sapiens) (UniProt P03372); test: Agonist activity at Gal4-fused full length ERalpha LBD (unknown origin) transfected in HEK293T cells co-transfected with pG5luc reporter and Renilla-luc at 0.1 to 1 uM incubated for 12 hrs by luciferase reporter gene assay; type: cell-based; details: dose 0.1-1 µM
Sequence of Estrogen receptor (Homo sapiens) (P03372 whole entry, the tested form may be a part): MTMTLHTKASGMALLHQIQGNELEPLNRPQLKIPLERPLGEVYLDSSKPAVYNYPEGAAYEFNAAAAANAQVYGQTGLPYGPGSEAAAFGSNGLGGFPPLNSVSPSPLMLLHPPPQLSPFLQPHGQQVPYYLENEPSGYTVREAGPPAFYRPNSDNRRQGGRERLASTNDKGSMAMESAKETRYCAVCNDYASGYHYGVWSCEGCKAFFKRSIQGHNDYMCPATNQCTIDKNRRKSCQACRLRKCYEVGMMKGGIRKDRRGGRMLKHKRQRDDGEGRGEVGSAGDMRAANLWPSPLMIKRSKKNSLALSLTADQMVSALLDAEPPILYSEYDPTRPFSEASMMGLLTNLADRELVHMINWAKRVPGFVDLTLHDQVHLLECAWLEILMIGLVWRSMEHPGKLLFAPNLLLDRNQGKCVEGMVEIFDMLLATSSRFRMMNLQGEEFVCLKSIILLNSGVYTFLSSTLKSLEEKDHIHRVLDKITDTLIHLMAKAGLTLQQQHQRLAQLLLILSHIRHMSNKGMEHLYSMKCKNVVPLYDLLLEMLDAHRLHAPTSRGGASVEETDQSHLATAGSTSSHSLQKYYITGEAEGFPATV

HeLa = test: Induction of 3-flag-tagged PML-RARalpha (unknown origin) degradation transfected in human HeLa cells at 1 to 2 uM incubated for 24 hrs by Western blot analysis; type: cell-based; details: dose 1-2 µM
ATRA-resistant NB4-LR2 [11] = test: Antiproliferative activity against human ATRA-resistant NB4-LR2 cells assessed as effect on cell viability up to 2 uM incubated for 3 days by CCK8 assay; type: functional, cell-based; details: time 3.0 day
NB-4 [12] = test: Induction of mitosis in human NB4 cells assessed as upregulation of pS10-histone expression at 2 uM measured after 3 hrs by Western blot analysis; type: functional, cell-based

| SMILES | Activity (K562 [1]) [%] | Activity (NB-4 [2]) [%] | Kd [3] [µM] | Activity (K562 [4]) | Activity [5] | inhibition (INH) (NB-4 [6]) [%] | Activity (ATRA-resistant NB4-LR2 [7]) | Activity [8] [%] | Emax [9] [%] | Activity [10] | Activity (HeLa) | Activity (ATRA-resistant NB4-LR2 [11]) | Activity (NB-4 [12]) |
| --- | --- | --- | --- | --- | --- | --- | --- | --- | --- | --- | --- | --- | --- |
| Cc1cc2c(cc1C(=O)/C(Br)=C/c1ccc(C(=O)O)cc1)C(C)(C)CCC2(C)C | 1 | 23.14 | 0.433 | inactive | Weak_effect | 100 | Active | 29.03 | 15 | Minimal_effect | Active | Active | Active |
| Cc1cc2c(cc1C(=O)/C(Br)=C\c1ccc(C(=O)O)cc1)C(C)(C)CCC2(C)C | 0.71 | 12.39 | 0.553 | inactive | Weak_effect | 100 | Active | 20.24 | 2 | Minimal_effect | Active | Active | Active |
